Results from patent US10639296B2, “Methods to mitigate injury from radiation exposure” (priority 2009, dated 2020).
Where two headings read alike, the source gives them in different places.

What was measured:
[1] = rapid peak and subsequent clearance; cited from earlier work
C57BL/6 mice [2] = conditions: for cutaneous injury (skin reaction): 5 mg/kg I.P. twice, one week after radiation and 48 hours later
Method: We exposed the legs of mice to 25 or 30 Gy radiation at a dose rate of approximately 5 Gy per minute. Subsequently, one week later, we administered Mozobil [LP.] at 5 mg/kg dose followed by another Mozobil administration [5 mg/kg, I.P.] 48 hours later. We monitored the test mice for lesions relating to skin damage.
Skin damage to the hind leg of C57BL/6 mice was measured using a semi-quantitative scale (TABLE ONE).

C57BL/6 mice [3] = conditions: for Median survival: 5 mg/kg I.P.
normal donors = conditions: cited from earlier work
dogs = conditions: cited from earlier work
Balb/c mice = conditions: 5 mg/kg i.p. 24 hours after 7 Gy
mice [4] = conditions: total body dose of 8 Gy; Mozobil I.P. 5 mg/kg single injection days later
Method: We exposed mice to radiation, total body dose of 8 Gy at a rate of approximately 1 Gy per minute. Subsequently, days later, we administered Mozobil [I.P.] at 5 mg/kg dose as a single injection. We monitored the test mice for lethality.

C57BL/6 mice [5] = conditions: 6.5 Gy TBI; 5 mg/kg 72 h after the radiation; 12 days after radiation exposure; n=8
mice [6] = conditions: data not shown
TNF-alpha = conditions: 30 days after 30 Gy; 5 mg/kg I.P. on day 7 and 9 post-irradiation; vs 30 Gy alone
Excerpt: (§1) Cytokine concentrations were from multiple samples, n=3 or 4 from single mice: one control, one receiving radiation alone and one receiving combined drug and radiation.

TGF-beta = conditions: 30 days after 30 Gy; 5 mg/kg I.P. on day 7 and 9 post-irradiation; vs 30 Gy alone
Excerpt: as §1

hematopoietic stem cells = conditions: cited from earlier work
[7] = dogs after lethal dose of TBI, AMD-3100 mobilized peripheral blood mononuclear cells

In the case of `c1cc(CN2CCCNCCNCCCNCC2)ccc1CN1CCCNCCNCCCNCC1` [plerixafor], the “clearance of the drug after injection” value [1] is given as at most 24 h, the “cutaneous injury (skin reaction)” value (C57BL/6 mice [2]; 25 Gy, to day 60) is given as “soon resolved completely” and the “cutaneous injury (skin reaction)” value (C57BL/6 mice [2]; 30 Gy, approximately day 60) is given as “had some hair loss but were otherwise normal”. For the same compound, the “skin damage (lesions)” value (C57BL/6 mice [2]; legs, 25 or 30 Gy, 5 mg/kg one week later and again 5 mg/kg I.P. 48 hours later) was “significantly reduced”, the “Survival at 30 days” value (C57BL/6 mice [3]; 5 mg/kg I.P. administered 24 h after radiation exposure) was 0% and the “Survival at 30 days” value (C57BL/6 mice [3]; 5 mg/kg I.P. administered 48 h after radiation exposure) was 14%. For the same compound, the “Survival at 30 days” value (C57BL/6 mice [3]; 5 mg/kg I.P. administered 72 h after radiation exposure) was 69%, the Median survival (C57BL/6 mice [3]; 48 h between radiation and drug) was 18 days and the Median survival (C57BL/6 mice [3]; 72 h between radiation and drug) was over 30 days. The “mitigation from TBI-induced lethality” value (C57BL/6 mice [3]; given after total body irradiation) was “significant mitigation”, the “side effects of single-dose administration” value (normal donors) was “very minor” and the “tolerability (adverse effects)” value (dogs; dog, in vivo) was “well tolerated without noticeable adverse effects”. The “Median days to neutrophil recovery” value (dogs; [7]) was 9 days, the “Median days to platelet recovery” value (dogs; [7]) was 25 days and the “lethality after total body irradiation” value (dogs; dogs) was “mitigates lethality”. The Median survival (Balb/c mice) was 18 days, the “survival (lethality)” value (mice [4]) was “significantly enhanced” and the “number of endogenous spleen colonies (mean)” value (C57BL/6 mice [5]) was 47±9. The “Leg contraction (percent leg extension relative to the unirradiated leg)” value (mice [6]) was “significantly improved”, the “TNF-alpha in irradiated skin” value (TNF-alpha) was “significantly reduced” and the “TGF-beta in irradiated skin” value (TGF-beta) was “significantly reduced”. For the same compound, the “mobilization of hematopoietic stem cells from the bone marrow to the bloodstream” value (hematopoietic stem cells; mice, dogs, and humans) was “strong inducer” and the “G-CSF-induced mobilization of HPCs” value (hematopoietic stem cells; mouse and human hematopoietic progenitor cells) was “synergistically augmented”.
